Patent publication US9291629B2, “Adiponectin receptor C-terminal fragments (CTF)-immunoglobulin” (Siemens Healthcare Diagnostics Inc., priority 2011, dated 2016)

What was measured:
CTF immunoglobulin = experiment: Western blot of CTF immunoglobulin in tissues of diabetic rats treated with AdipoR1 CTF25; type: in vivo; details: for Primarily observed immunoglobulin chains with CTF: treated diabetic rats
Protocol: Western blot analyses were run on human plasma, pancreas, adipose, liver and muscles tissue, as well as myocytes and epithelial cell culture homogenates according to the following methods and variations thereof.
(§1) Samples and homogenates with protein concentration of about 20 ug/ml were boiled in water for 5 minutes in buffer with SDS and chilled on ice to denature the protein. The sample was then centrifuged to remove precipitate and was boiled sample 1:1 with BioRad Laemmli buffer with 5% beta-mercaptoethanol to break the disulfide bonds. The treated samples were loaded onto the 12% or 10% Ready Gel (Biorad) and SDS-PAGE gel was run in Tris, glycine, SDS buffer (BioRad) at 110V (BioRad PROTEAN® Tetra Cel) for 1-1.5 hours until the bromophenol blue reached the bottom of the gel. Gel plates were disassembled, soaked in transfer buffer and the gels were transferred to 0.2 um nitrocellulose paper at 30V in a 4° C. chamber overnight.
(§2) After the protein transfer, the nitrocellulose was rinsed and washed with TTBS buffer (20 mM Tris, 500 mM NaCl, pH 7.4, 0.1% Tween®-20). The membrane was then blocked with 5% BSA in TTBS at room temperature with gentle agitation. The blocking buffer was then removed and the membrane was incubated with antibodies conjugated to alkaline phosphatase or horse radish peroxidase. For AdipoR1 CTF, the mAb 444-1D12 conjugated to alkaline phosphatase was used (2.5 mg/ml diluted 1:1000 Siemens Healthcare Diagnostics). The membrane with antibody conjugate was incubated at room temperature for 3 hours or at 4° C. overnight with gentle agitation. The antibody was then discarded and the gel was washed three times with TTBS for 5 minutes each. The membrane was incubated with the alkaline phosphate or horse radish peroxidase substrate and the color developed and recorded. In some cases the membrane was imaged by exposure to X-ray film (Fisher) at a desired time (3 seconds to 10 minutes) and then developed using Kodak® GBX developer/fixer.
The results of the western blots obtained on liver, pancreas, muscle and mesenteric tissues of normal rats, diabetic rats and diabetic rats treated with AdipoR1 CTF25 (SEQ ID NO: 11) are shown in Table 3. Results are typical for all monoclonal antibodies to CTF AdipoR1 and AdipoR2 and treatments tested. All of the tissues show the presence of CTF immunoglobulins. […] Differences in the amount of immunoglobulin chains with CTF were observed between individual rat and between normal and diabetic rats. All tissues contained IDE and TACE.

mouse myocytes (C2C12) = experiment: Western blot of CTF immunoglobulin in induced mouse myocytes (C2C12); type: cell-based; details: for Increase of CTF immunoglobulin on treatment of cell cultures: myocyte cell culture; for Primarily observed immunoglobulin chains with CTF: treated myocyte, denatured western blot of lysates
Protocol: as §1, §2
(§3) Cell culture mouse myocytes (C2C12) and green monkey epithelial cell (VERO) (American Type Cell Culture, ATCC, Manassa Va.) were maintained in culture using RPMI-1640 media, while normal cells were maintained with modified Eagle's medium (MEM). Both media contained 2 mM glutamine, penicillin (50 units/ml), streptomycin (50 μg/ml), and 10% fetal bovine serum. The media was cytokine free. Cells were grown at 37° C. in an atmosphere of 95% air and 5% CO2 and propagated by splitting with 1 to 4 dilutions using PBS/EDTA at cell growth confluence. Cell lines were synchronized and induced with R1 CTF25 SEQ ID NO:11 or globular adiponectin.
(§4) Both cell lines expressed Adiponectin receptor 1 and lysates from both cell lines contained CTF immunoglobulin, comprising the heavy chain and full IgG but without the light chain form on denatured Western blots. As these are cell cultures grown in fetal bovine serum containing bovine IgG, the cells attach CTF to IgG. […]

[1] = system: green monkey epithelial cell (VERO); experiment: Western blot of CTF immunoglobulin in induced green monkey epithelial cells (VERO); type: cell-based; details: for Increase of CTF immunoglobulin on treatment of cell cultures: epithelial cell culture; for Primarily observed immunoglobulin chains with CTF: treated epithelial cells, denatured western blot of lysates
Protocol: as §1, §2, §3, §4

Substance	Increase of CTF immunoglobulin bands on treatment (CTF immunoglobulin; rat tissues)	Primarily observed immunoglobulin chains with CTF (CTF immunoglobulin; liver)	Primarily observed immunoglobulin chains with CTF (CTF immunoglobulin; mesenteric tissues)	Primarily observed immunoglobulin chains with CTF (CTF immunoglobulin; muscle)	Primarily observed immunoglobulin chains with CTF (CTF immunoglobulin; pancreas)	Increase of CTF immunoglobulin on treatment of cell cultures (mouse myocytes (C2C12))	Primarily observed immunoglobulin chains with CTF (mouse myocytes (C2C12))	Increase of CTF immunoglobulin on treatment of cell cultures [1]	Primarily observed immunoglobulin chains with CTF [1]
HFYGVSNLQEFRYGLEGGCTDDTLL [AdipoR1 CTF25]	did not increase bands	Light chains	Heavy & light	Heavy & light	Heavy chain	did not increase CTF immunoglobulin	Heavy chains &	did not increase CTF immunoglobulin	Heavy chains &
adiponectin [reference compound]	–	–	–	–	–	did not increase CTF immunoglobulin bands	Heavy chains & full	did not increase CTF immunoglobulin bands	Heavy chains & full
